{"source": "ChEMBL document CHEMBL1201862", "about": "“PubChem BioAssay data set” (2004)", "key": {"Streptococcus": {"tested_on": "Streptococcus", "assay": "GAS UMAA2166 growth inhibition – luminescence, BacTiterGlo, counter-screen for streptokinase expression inhibitor project, dose response (AID 1915);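 also: potency for reduction of bacterial viability or growth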", "format": "functional, organism-based"}, "[1]": {"target": "Photoreceptor-specific nuclear receptor (Homo sapiens, UniProt Q9Y5X4)", "sequence (Q9Y5X4 whole entry)": "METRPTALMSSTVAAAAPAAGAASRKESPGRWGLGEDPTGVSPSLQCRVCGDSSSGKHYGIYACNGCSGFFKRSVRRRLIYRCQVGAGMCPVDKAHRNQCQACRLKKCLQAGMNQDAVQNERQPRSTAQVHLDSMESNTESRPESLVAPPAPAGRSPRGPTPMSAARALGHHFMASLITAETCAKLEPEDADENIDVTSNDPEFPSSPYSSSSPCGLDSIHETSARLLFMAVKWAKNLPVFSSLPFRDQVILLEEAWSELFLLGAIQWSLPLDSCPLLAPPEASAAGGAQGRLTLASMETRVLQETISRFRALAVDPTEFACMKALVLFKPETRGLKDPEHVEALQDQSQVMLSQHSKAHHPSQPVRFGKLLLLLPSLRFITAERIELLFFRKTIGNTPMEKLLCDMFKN", "format": "functional, cell-based"}, "[2]": {"tested_on": "Streptococcus sp. 'group A'", "assay": "Streptococcus pyogenes SK(-)GAS viability under kanamycin – luminescence, BacTiterGlo, confirmation, counter-screen for streptokinase expression inhibitor project, dose response (AID 1900)", "format": "functional, organism-based"}, "Protein Wnt-3a": {"target": "Protein Wnt-3a (Mus musculus, UniProt P27467)", "sequence (P27467 whole entry)": "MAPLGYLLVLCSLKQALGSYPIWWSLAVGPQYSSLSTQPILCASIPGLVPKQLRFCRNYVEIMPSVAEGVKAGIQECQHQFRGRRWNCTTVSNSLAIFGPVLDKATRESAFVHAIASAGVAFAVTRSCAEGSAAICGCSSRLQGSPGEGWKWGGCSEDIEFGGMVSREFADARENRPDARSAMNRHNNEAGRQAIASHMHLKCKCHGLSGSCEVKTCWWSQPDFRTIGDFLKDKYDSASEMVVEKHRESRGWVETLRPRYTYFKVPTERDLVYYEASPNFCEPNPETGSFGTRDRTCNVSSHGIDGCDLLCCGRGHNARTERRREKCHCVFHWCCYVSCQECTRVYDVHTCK", "assay": "antagonism of Wnt3a pathway luciferase reporter – Wnt-LIGHT cells, luminescence, selectivity assay for Gli-SUFU antagonist project, dose response (AID 651570);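 also: Wnt-LIGHT reporter cells stimulated with conditioned medium from Wnt3a-producing cells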", "format": "functional", "conditions": "read-out: IC50_Mean"}, "INS1": {"tested_on": "INS1", "assay": "INS-1E survival protection against cytokine death – cell-based, luminescence, retest, dose response (AID 449756);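 also: cell death triggered by IL-1 beta plus TNF-alpha plus IFN-gamma mixture; protective hits raise ATP signal compared with cytokine alone wells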", "format": "functional", "conditions": "Rattus norvegicus"}, "[3]": {"assay": "Vero E6 cell cytotoxicity, dose response, cytotoxicity control for non-replicating M. tuberculosis project, secondary assay (AID 492998)", "format": "functional, VeroE6", "conditions": "Vero C1008"}, "[4]": {"assay": "loss of viability in HepG2 cells – cell-based, CellTiter-Glo, cherry-picked, cytotoxicity control for Shn3 inhibitor project, dose response (AID 624134)", "format": "functional"}, "[5]": {"assay": "NIH3T3 cell viability loss – ATP luminescence, mouse fibroblasts, counter-screen, dose response (AID 2010);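 also: cells exposed to compound for about 90 hours before reading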", "format": "functional, cell-based"}, "[6]": {"target": "T1, Microphthalmia-associated transcription factor (Homo sapiens, UniProt O75030)", "T1 sequence (O75030 whole entry)": "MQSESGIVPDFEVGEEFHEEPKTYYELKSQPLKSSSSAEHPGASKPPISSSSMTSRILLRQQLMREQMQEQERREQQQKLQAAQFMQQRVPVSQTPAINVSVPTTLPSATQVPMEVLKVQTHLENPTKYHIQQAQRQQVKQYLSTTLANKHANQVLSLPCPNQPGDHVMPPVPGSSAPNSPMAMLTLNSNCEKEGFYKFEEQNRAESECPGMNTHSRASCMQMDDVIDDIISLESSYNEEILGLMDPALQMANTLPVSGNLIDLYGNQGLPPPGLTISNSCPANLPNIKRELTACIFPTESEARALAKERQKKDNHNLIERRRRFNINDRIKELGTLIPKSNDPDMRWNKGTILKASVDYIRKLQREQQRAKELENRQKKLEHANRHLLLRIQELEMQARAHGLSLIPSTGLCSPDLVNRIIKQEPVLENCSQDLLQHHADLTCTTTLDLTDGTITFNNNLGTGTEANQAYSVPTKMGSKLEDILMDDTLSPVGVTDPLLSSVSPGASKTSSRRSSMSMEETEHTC", "assay": "reducers of TRPM1 reporter luminescence, concentration series – cell-based, SK-MEL-5, cherry-picked, set 3, MITF inhibitor project, dose response (AID 493073)", "format": "functional"}, "[7]": {"assay": "THP-1 cell cytotoxicity, dose response, cytotoxicity control for non-replicating M. tuberculosis project (AID 489025)", "format": "functional"}, "[8]": {"assay": "HepG2 cell cytotoxicity, dose response, cytotoxicity control for non-replicating M. tuberculosis project (AID 489018)", "format": "functional", "conditions": "Mycobacterium tuberculosis"}, "[9]": {"assay": "Luminescence Cell-Based Dose Retest to Confirm Inhibitors of Cancer Stem Cells. [Related pubchem assays (depositor defined):AID2717, AID2721]", "format": "functional", "conditions": "Homo sapiens"}, "A-375": {"tested_on": "A-375", "assay": "MITF: Counter assay: A375 proliferation Measured in Cell-Based System Using Plate Reader - 2084-03_Inhibitor_Dose_DryPowder_Activity. [Related pubchem assays (depositor defined):AID488944]", "format": "functional", "conditions": "Homo sapiens"}, "[10]": {"assay": "non-specific 3'UTR reporter inhibition in Clone20-Shn3RL – cell-based, Renilla luciferase, cherry-picked, counter-screen for Shn3 inhibitor project, dose response (AID 624133)", "format": "functional"}, "[11]": {"assay": "Trypanosoma cruzi growth suppression in host cells – NIH3T3 host cells, beta-gal luminescence, confirmation (AID 2044);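 also: luminescent beta-galactosidase reporter signal from transgenic T. cruzi replicating inside host cells; inhibitors lower the luminescence signal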", "format": "functional, cell-based"}, "cells": {"assay": "cells", "format": "functional"}, "[12]": {"assay": "viability loss in HeLa cells – cytotoxicity control for MgcRacGAP inhibitor project, dose response (AID 624300)", "format": "functional"}, "[13]": {"assay": "reduction of Shn3 3'UTR-driven luciferase in osteoblasts – cell-based, Clone20 osteoblasts, firefly luciferase, cherry-picked, dose response (AID 624132)", "format": "functional"}, "Beta-galactosidase": {"target": "Beta-galactosidase (Escherichia coli, UniProt Q8VNN2)", "sequence (Q8VNN2 whole entry)": "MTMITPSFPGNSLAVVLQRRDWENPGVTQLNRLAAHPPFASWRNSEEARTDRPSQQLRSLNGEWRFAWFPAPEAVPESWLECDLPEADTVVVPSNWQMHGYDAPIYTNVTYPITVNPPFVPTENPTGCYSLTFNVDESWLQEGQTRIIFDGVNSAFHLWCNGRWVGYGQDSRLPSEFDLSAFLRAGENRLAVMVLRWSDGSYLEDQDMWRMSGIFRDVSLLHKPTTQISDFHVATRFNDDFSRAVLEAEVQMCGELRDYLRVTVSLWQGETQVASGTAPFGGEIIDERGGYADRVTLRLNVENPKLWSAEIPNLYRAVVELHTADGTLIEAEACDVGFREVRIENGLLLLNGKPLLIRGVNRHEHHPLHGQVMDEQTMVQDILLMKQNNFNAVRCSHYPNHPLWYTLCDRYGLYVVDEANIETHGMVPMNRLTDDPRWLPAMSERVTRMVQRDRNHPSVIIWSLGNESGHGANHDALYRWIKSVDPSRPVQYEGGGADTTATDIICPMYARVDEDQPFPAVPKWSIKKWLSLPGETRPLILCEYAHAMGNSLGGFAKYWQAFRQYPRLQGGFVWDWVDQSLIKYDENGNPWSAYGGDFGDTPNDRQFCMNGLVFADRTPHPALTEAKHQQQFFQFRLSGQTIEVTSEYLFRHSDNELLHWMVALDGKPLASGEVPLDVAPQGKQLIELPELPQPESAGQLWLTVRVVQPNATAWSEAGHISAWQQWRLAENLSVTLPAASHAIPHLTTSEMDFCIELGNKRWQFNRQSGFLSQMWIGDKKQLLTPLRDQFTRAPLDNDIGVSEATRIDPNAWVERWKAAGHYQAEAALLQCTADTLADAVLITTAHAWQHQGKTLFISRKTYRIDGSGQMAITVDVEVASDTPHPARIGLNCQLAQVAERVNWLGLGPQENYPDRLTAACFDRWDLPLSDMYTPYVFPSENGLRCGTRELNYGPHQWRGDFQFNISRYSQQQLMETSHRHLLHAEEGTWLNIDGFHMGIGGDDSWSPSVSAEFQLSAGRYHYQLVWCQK", "assay": "Dose response counterscreen for EBI2 assay utilizing the enzyme, b-galactosidase.", "format": "functional"}, "[14]": {"assay": "microbe, parasite or virus in culture", "format": "functional", "conditions": "Mycobacterium tuberculosis"}, "[15]": {"target": "T2, Sentrin-specific protease 1 (Homo sapiens, UniProt Q9P0U3)", "T2 sequence (Q9P0U3 whole entry)": "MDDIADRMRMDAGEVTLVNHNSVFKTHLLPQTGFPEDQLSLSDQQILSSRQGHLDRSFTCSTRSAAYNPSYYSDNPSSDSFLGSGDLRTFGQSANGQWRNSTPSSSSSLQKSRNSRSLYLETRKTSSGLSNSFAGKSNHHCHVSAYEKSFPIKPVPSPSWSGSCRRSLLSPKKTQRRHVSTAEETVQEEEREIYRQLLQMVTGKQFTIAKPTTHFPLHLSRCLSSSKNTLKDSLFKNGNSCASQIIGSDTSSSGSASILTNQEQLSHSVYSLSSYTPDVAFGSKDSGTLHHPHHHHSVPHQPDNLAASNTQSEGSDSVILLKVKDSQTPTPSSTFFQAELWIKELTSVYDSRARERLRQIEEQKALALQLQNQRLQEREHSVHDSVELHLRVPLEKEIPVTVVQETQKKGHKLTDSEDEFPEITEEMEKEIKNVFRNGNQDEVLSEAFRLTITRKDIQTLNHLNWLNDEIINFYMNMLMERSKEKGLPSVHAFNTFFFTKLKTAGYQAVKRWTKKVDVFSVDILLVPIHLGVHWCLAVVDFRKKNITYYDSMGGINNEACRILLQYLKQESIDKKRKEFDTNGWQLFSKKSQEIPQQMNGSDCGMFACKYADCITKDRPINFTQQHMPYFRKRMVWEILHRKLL", "assay": "SENP1 catalytic domain blockers, concentration series – biochemical, kinetic FRET, dose response (AID 651697)", "format": "functional", "conditions": "read-out: IC50_Mean"}, "[16]": {"target": "T2, Sentrin-specific protease 1", "assay": "Dose response confirmation of small molecule inhibitors of the catalytic domain of the SUMO protease, SENP1 in a FRET assay.", "format": "functional", "conditions": "read-out: IC50_Mean"}}, "note": "Calls of active or inactive are those of the source."}
{"compound": "CC(=O)c1c(O)cc(O)c(C(C)=O)c1O", "values": [{"measurement": "EC50", "setting": "Streptococcus", "result": "3.98 µM (active)"}, {"measurement": "IC50", "setting": "[1]", "result": "3.24 µM (active)"}, {"measurement": "EC50", "setting": "[2]", "result": "3.9 µM (active)"}]}
{"compound": "COc1ccc(CNc2cc(C)nc3ncnn23)c(OC)c1", "values": [{"measurement": "IC50", "setting": "Protein Wnt-3a", "result": "4.21 µM (active)"}]}
{"compound": "Cc1ccn2c(Nc3ccccc3)c(-c3ccccn3)nc2c1", "values": [{"measurement": "AC50", "setting": "INS1", "result": "5.31 µM (active)"}, {"measurement": "CC50", "setting": "[3]", "result": "4.64 µM (active)"}, {"measurement": "AC50", "setting": "[4]", "result": "7.07 µM (active)"}, {"measurement": "EC50", "setting": "[5]", "result": "2.91 µM (active)"}, {"measurement": "AC50", "setting": "[6]", "result": "9.31 µM (active)"}, {"measurement": "CC50", "setting": "[7]", "result": "6.44 µM (active)"}, {"measurement": "CC50", "setting": "[8]", "result": "> 20 µM (active)"}, {"measurement": "AC50", "setting": "[9]", "result": "4.95 µM (active)"}, {"measurement": "AC50", "setting": "A-375", "result": "38.1 µM (active)"}, {"measurement": "AC50", "setting": "[10]", "result": "3.25 µM (active)"}, {"measurement": "EC50", "setting": "[11]", "result": "1.16 µM (active)"}, {"measurement": "IC50", "setting": "cells", "result": "3.88 µM (active)"}, {"measurement": "CC50", "setting": "[12]", "result": "50 µM (active)"}, {"measurement": "AC50", "setting": "[13]", "result": "2.31 µM (active)"}]}
{"compound": "CCOC(=O)c1ccc(/N=c2\\sc(C(=O)OC)cc(=O)n2CCCN2CCOCC2)cc1", "values": [{"measurement": "IC50", "setting": "Beta-galactosidase", "result": "> 80 µM (inactive)"}, {"measurement": "CC50", "setting": "[14]", "result": "> 40 µM (active)"}]}
{"compound": "COc1cc(/C=C2\\CCCc3c2nc2ccccc2c3C(=O)O)cc(Cl)c1O", "values": [{"measurement": "IC50", "setting": "[15]", "result": "4.82 µM (active)"}, {"measurement": "IC50", "setting": "[16]", "result": "2.96 µM (active)"}]}
